Assay type in all cases: cell-based, mouse
The test system of one experiment is Nanog. In words: Immunofluorescence staining, Nanog in iPS cells. The conditions noted are these: 72 hours, control group = 100%. An excerpt:
(§1) Nanog and SSEA1 are also marker proteins of stem cells, and their expression levels could be measured by immunofluorescence staining to further confirm whether BP can effectively maintain the self-renewal and pluripotency of stem cells.
(§2) An experimental group medium (BP5, BP10, BP20 or BP40), a LIF-containing medium (without BP), and a control group medium (without BP) were used respectively in a 6-well culture dish which comprises a slide in each well to culture ES cells with an initial density of 1×10^4 per well for 72 hours. The medium was removed and the cells were washed with PBS. Next, PBS was removed, and then 4% paraformaldehyde was added to perform the fixation at room temperature for 10 minutes. Next, paraformaldehyde was removed, and then slides were washed with 0.1% Tween-20/1X PBS three times for 10 minutes each time. The 0.3% Tween-20/1X PBS was added and held at room temperature for 30 minutes to penetrate the cell membrane to benefit the dye entry. After the slides were washed three times with 0.1% Tween-20, 5% FBS/1×PBS was added to perform a blocking reaction at room temperature for 2 hours, and then reacting with the primary antibody [anti-Nanog (Novus) or anti-SSEA1 (Millipore)] at a dilution of 1:100 at room temperature overnight. Slides were then washed 5 times with 0.1% Tween-20, then reacting with the secondary antibody [FITC-conjugated anti-mouse IgG or TRITC-conjugated anti-rabbit IgG (Sigma-Aldrich)] at a dilution of 1:500. After washed with 0.1% Tween-20 for 10 minutes, slides were mounted with the DAPI-containing UltraCruz™ Mounting medium and observed using an inverted fluorescent microscope.
By using the above culture conditions, an experimental group medium (BP5, BP10, BP20 or BP40), a LIF-containing medium (without BP), and a control group medium (without BP) were used respectively to culture iPS cells. The staining of iPS cells was performed by using the steps described above.

The test system of another experiment is SSEA1. In words: Immunofluorescence staining, SSEA1 in ES cells. The conditions noted are these: for SSEA1 expression level: ES cells, 72 hours, control group = 100%.
Description: as §1, §2

For the next experiment, the system named is OSM. In words: Real-time PCR, cytokine gene OSM in ES cells. The conditions noted are these: for Osm mRNA expression level: ES cells, control group = 100%. As to the method:
(§3) An experimental group medium (BP5, BP10, BP20 or BP40) and a control group medium (without BP) were added respectively to perform the following steps. ES cells were cultured with an initial density of 1×10^4 per well in a 6-well culture dish. The medium was removed until the cells growth to be about 70 to 80% confluence, and then 1 ml TRIzol (Invitrogen) was added into each well. The cells were incubated for 5 minutes, and then was scraped by a spatula and placed into a 1.5 ml microtube to be lysed adequately. Chloroform (0.2 ml) was added into the microtubes. The mixture was shaken up and down for 15 seconds, and then incubated at room temperature for 2 to 3 minutes. Thereafter, the mixture was centrifuged at 12000 rpm at 4° C. for 15 minutes, and the supernatant was removed into another 1.5 ml microtube and isopropanol (0.5 ml) was added into the microtube with well mixing. The mixture was incubated at room temperature for 10 minutes and then centrifuged at 12000 rpm at 4° C. for 10 minutes. The supernatant was then removed. One ml of 70% ethanol containing DEPC.H2O was used to wash the remaining sediment. The sediment was centrifuged at 7500 rpm at 4° C. for 5 minutes. The supernatant was removed. The sediment was dried by vacuum suction. The dried samples were dissolved in about 0.01 to 0.02 ml of DEPC.H2O to obtain the experimental group RNA and control group RNA. Both groups were stored at −80° C.
(§4) The OD value of RNA samples in both groups obtained from the above Experiment I were measured at a wavelength of 260 nm (RNA: OD260=1 for a 40 μg/mL solution). Each RNA sample (2 μl) was added with RNA-free water until the volume of the sample reached 10 μl. Two μl oligo (dT) (100 μg/ml) was added into each sample, and the samples were incubated at 65° C. for 5 minutes. Then, the samples were immediately placed on ice and spun down. Next, 6.5 μl of a reaction solution [4 μl of 5× buffer+1 μl of 0.1 M DTT+1 μl of RNase out+0.5 μl of SSIII (Invitrogen)] was added into each of the samples, and the samples were incubated at 50° C. for about 30 to 60 minutes and at 75° C. for 15 minutes to obtain the experimental group cDNA and control group cDNA. Both groups were stored at −80° C.
(§5) This experiment was used to detect the expression levels of ES cell-related genes, i.e., Oct4 and Sox2, etc. First, 4 μl of the experimental group cDNA or control group cDNA was added into each well of a 96-well micro-reaction plate, and mixed with 6 μl of a reaction solution [0.5 μl of 6 μM forward primer+0.5 μl of 6 μM reverse primer+5 μl of SYBR Green PCR Master mix (Roche)], wherein the SYBR Green PCR Master mix included the reagents needed for Q-PCR, such as dNTPs, MgCl, Taq DNA polymerase and 2×SYBR® Green I solution. […] The cycle threshold (CT) values were measured. […]
For orientation: Real-time PCR tracks product formation cycle by cycle.

The next experiment relates to IL11. In words: Real-time PCR, cytokine gene IL11 in ES cells. The note with it: for IL11 mRNA expression level: ES cells, control group = 100%. As to the method: as §3, §4, §5
The mark [1] stands for this setting: LIF-containing medium (LIF 4 ng/ml, without BP).
Setting [2] is: LIF-containing medium (LIF 4 ng/ml).
Where [3] appears, read: BP10 medium (about 10 μg BP/ml).
Setting [4] is: BP20 medium (about 20 μg BP/ml).
Where [5] appears, read: BP40 medium (about 40 μg BP/ml).
[6] abbreviates: BP-containing ES cell medium, result in words.

In the experiment with Nanog (setting [1]), “LIF: multifunctional cell factor used to maintain pluripotency of stem cells; LIF-containing medium (4 ng/ml, without BP) as comparison” returned a Nanog expression level of 386%. The same compound came in with an SSEA1 expression level in the experiment on SSEA1 (setting [1]) of 242.01%. Moreover, the “Osm mRNA expression level” value in the experiment on OSM (setting [2]) worked out at 128%. Moreover, in the experiment on IL11 (setting [2]), the “IL11 mRNA expression level” value is listed as 99%.
With `CCCC=C1OC(=O)c2ccccc21` [BP, n-butylidenephthalide], the Nanog expression level in the experiment with Nanog (BP5 medium (about 5 μg BP/ml)) was 142%; in the experiment with Nanog (setting [3]), 305%; with Nanog (setting [4]) it was 358%; in the experiment with Nanog (setting [5]), 442%. Moreover, the SSEA1 expression level with SSEA1 (BP5 medium (about 5 μg BP/ml)) turned out to be 76.27%; in the experiment on SSEA1 (setting [3]) it was 202.82%; in the experiment with SSEA1 (setting [4]) it was 172.12%; in the experiment on SSEA1 (setting [5]) it was 145.71%. For the same compound, in the experiment on SSEA1 (BP-containing ES cell medium vs control group (without BP), result in words), the “expression level of SSEA1” value is recorded as “higher”. For the same compound, the “Osm mRNA expression level” value came to 109% with OSM (BP5 medium (about 5 μg BP/ml)) and 246% in the experiment with OSM (setting [3]). The “mRNA expression level of OSM” value in the experiment on OSM (setting [6]) is “significantly up-regulated”. Also, the “IL11 mRNA expression level” value with IL11 (BP5 medium (about 5 μg BP/ml)) stood at 93%; in the experiment on IL11 (setting [3]) it was 191%. In addition, the “mRNA expression level of IL-11” value in the experiment on IL11 (setting [6]) is given as “significantly up-regulated”.
